Test results: patent US20240368566A1, “PYK2-DERIVED PEPTIDES FOR INHIBITING INVADOPODIA-MEDIATED CANCER METASTASIS” (BAR-ILAN UNIVERSITY, priority 2023, published 2024)

Tests used:
MDA-MB-231 cells = assay: 3D scratch wound assay in Matrigel; format: cell-based, human; details: 0.1, 1, 5 μM peptide; versus scrambled control
Protocol: The 3D scratch wound assay was performed as described in Meirson et al. Targeting invadopodia-mediated breast cancer metastasis by using ABL kinase inhibitors. Oncotarget 2018; 9: 22158-22183. Briefly, 96 well Image Lock microtiter plates (Essen Bioscience) were coated with 100 μg/ml Matrigel (cat #354234; Corning, New-York, NY, USA). Following overnight incubation at 37° C., MDA-MB-231 cells were plated at a final concentration of 350,000 cells/ml and allowed to adhere for 12-16 h in the presence of Pyk2-PRR or control peptides. Following wounding of the bottom Matrigel-cells layer, a top layer of Matrigel was added to a final concentration of 2 mg/ml and allowed to polymerize for 30 min at 37° C. Pyk2-PRR or control scrambled peptides were then added again in DMEM/10% FBS to a final concentration of 0.1, 1, or 5 μM, with or without the MMP inhibitor GM6001 ([…]). Plates were placed in a 37° C. heated chamber, and images were collected using the IncuCyte® Zoom platform (Essen Bioscience; 20×, NA 0.60, air objective). Phase images were collected every one hour for a total of 12 h using the IncuCyte® acquisition software.

cortactin tyrosine Y421 = assay: Immunofluorescence analysis of cortactin tyrosine phosphorylation at invadopodium precursors; format: cell-based, human; details: EGF stimulation 3 min; all concentrations (0.1, 1, 5 μM)
Protocol: Twenty-four hours before each experiment, cells were plated on fibronectin/gelatin unlabeled matrix in the presence of a Pyk2-PRR or control peptides at 0.1, 1, and 5 μM concentration and allowed to attach for eight hours. Cells were then starved in DMEM/0.5% FBS for 16 h in the presence of peptides and stimulated with 2.5 nM EGF for 3 min or left un-stimulated (0 min EGF). Cells were fixed and stained with mouse phospho-specific cortactin antibody (pY421). To image invadopodia Z-plane, focus was on the ventral surface of the cell where the leading edge containing cortactin is focused. The pixels corresponding to invadopodia dots were then analyzed, not the whole cell. The intensity (mean grey value (mgv) minus background) of cortactin-TagRFP and pY421-cortactin at invadopodium precursors was quantified. The pY421-cortactin/cortactin-TagRFP ratio was calculated as a measure of tyrosine-phosphorylated cortactin at cortactin-rich puncta. Data were normalized to resting cells (0 min EGF) and presented as the relative fold change in cortactin tyrosine phosphorylation.

C[C@H](NC(=O)[C@@H](N)[C@@H](C)O)C(=O)N[C@@H](Cc1ccccc1)C(=O)N[C@@H](CCC(N)=O)C(=O)N[C@@H](CCC(=O)O)C(=O)N1CCC[C@H]1C(=O)N1CCC[C@H]1C(=O)N1CCC[C@H]1C(=O)N[C@@H](CCCCN)C(=O)N1CCC[C@H]1C(=O)N[C@@H](CO)C(=O)N[C@@H](CCCNC(=N)N)C(=O)N1CCC[C@H]1C(=O)N[C@@H](CCCCN)C(=O)N[C@@H](Cc1ccc(O)cc1)C(=O)N[C@@H](CCCNC(=N)N)C(=O)N1CCC[C@H]1C(=O)N1CCC[C@H]1C(=O)N1CCC[C@H]1C(=O)O [Pyk2-PRR2, TAFQEPPPKPSRPKYRPPP]
invasion towards a scratch wound in 3D Matrigel (MDA-MB-231 cells): significantly reduced ability to close the gap
cortactin Y421 phosphorylation (cortactin tyrosine Y421): completely abolished
